Measurements from ChEMBL document CHEMBL1201862, “PubChem BioAssay data set” (2004).
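The compound was tested at five concentrations on cells cultured in 96-well plates, with a 48-hour exposure period. GI50: concentration for 50% inhibition of growth.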 Activity calls are given as the source filed them. No stated cut-off is given here; in the data, active = GI50 up to about 1.1 µM and inactive = higher.

Experiments:
Assay in all cases: NCI anticancer screen, dose series, 48 h
HOP-18 = tested on: HOP-18
DMS-114 = tested on: DMS-114
DMS-273 = tested on: DMS-273
M19-MEL = tested on: M19-MEL
SNB-78 = tested on: SNB-78
DLD-1 = tested on: DLD-1
KM-20L2 = tested on: KM-20L2
XF498 = tested on: XF498
RXF 631 = tested on: RXF 631

Measured: GI50

Cc1ccc(NC(=O)CCc2n[nH]c(=S)o2)cc1
inactive: HOP-18 > 100 µM | DMS-114 > 100 µM | DMS-273 > 100 µM | M19-MEL > 100 µM | SNB-78 > 100 µM | DLD-1 > 100 µM | KM-20L2 > 72.1 µM | XF498 > 100 µM | RXF 631 > 100 µM

CC(C)(C)OC(=O)c1cccnc1/C=N/O
inactive: HOP-18 > 100 µM | DMS-114 > 100 µM | DMS-273 > 100 µM | M19-MEL > 100 µM | SNB-78 > 100 µM | DLD-1 > 100 µM | KM-20L2 51.4 µM | XF498 > 100 µM | RXF 631 > 100 µM
